Reference: article PMC11280325, “Design, Synthesis, and Characterization of Novel Thiazolidine-2,4-Dione-Acridine Hybrids as Antitumor Agents” (Molecules, 2024)
Like-named read-outs stand apart in the source and are kept apart here.

Tests used:
[1] = tested on: HeLa; assay: MTT assay, HeLa; assay type: cell-based, human; conditions: cervical adenocarcinoma, 48 h incubation
Method in brief: (§1)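 Antiproliferative IC50 is derived by nonlinear regression from MTT colorimetry. Cells receive four compound concentrations (5 to 50 µmol/L) for 48 h under standard culture; formazan is read at 540 nm after SDS solubilisation.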

[2] = tested on: A549; assay: MTT assay, A549; assay type: cell-based, human; conditions: lung adenocarcinoma, 48 h incubation
Method in brief: as §1

[3] = tested on: A2058; assay: MTT assay, A2058; assay type: cell-based; conditions: human melanoma, 48 h incubation
Method in brief: as §1

[4] = tested on: HCT116; assay: MTT assay, HCT116; assay type: cell-based, human; conditions: colorectal adenocarcinoma, 48 h incubation
Method in brief: as §1

[5] = tested on: PATU; assay: MTT assay, PATU 8902; assay type: cell-based, human; conditions: pancreas adenocarcinoma, 48 h incubation
Method in brief: as §1

[6] = tested on: Bj-5ta; assay: MTT assay, BJ-5ta non-cancerous fibroblasts; assay type: cell-based, human; conditions: non-cancerous dermal fibroblasts, 48 h incubation
Method in brief: (§2)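 IC50 by nonlinear regression from MTT absorbance (540 nm, SDS-dissolved formazan), at least three repeats. Non-cancerous human lines, MCF-10A and BJ-5ta fibroblasts, were treated 48 h with 5, 10, 20 and 50 µmol/L compound, added 24 h after seeding.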

[7] = tested on: Hep G2; assay: MTT assay, Hep G2; assay type: cell-based, human; conditions: hepatocellular carcinoma, 48 h incubation
Method in brief: as §1

[8] = biological target: T1, bovine serum albumin (BSA) (Bos taurus, UniProt P02769); assay: BSA fluorescence quenching (Stern–Volmer); assay type: binding; conditions: for Stern–Volmer quenching constant Ksv: BSA 1 μM, excitation 280 nm, PBS pH 7.4, 24 °C; for bimolecular quenching rate constant kq: kq = Ksv/τ0, τ0 = 10^−8 s, BSA, pH 7.4, 24 °C
T1 construct: purchased Sigma-Aldrich
Source text: BSA contains 582 amino acid residues, including tyrosine (Tyr), phenylalanine (Phe), and tryptophan (Trp). The tryptophan residues located at positions 134 and 212 being predominantly responsible for its intrinsic fluorescence due to their higher quantum yield than the other amino acids. When excitation occurs at 280 nm, both Trp and Tyr contribute to the fluorescence of the protein [44]. In this study, we investigated the interaction of newly synthesized derivatives (7e·2HCl, 12d·2HCl, 13c·HCl, and 13d), which have promising anticancer properties, with BSA. BSA (1 μM) was titrated with increasing concentration of acridine derivatives, and fluorescence spectra were recorded in the range of 300–500 nm (Figure 10). The fluorescence quenching for the quencher (Q) and protein interaction was analyzed using the Stern–Volmer equation [45, 46]: F0/F=1+Ksv [Q]=1+Kq τ0[Q] where F0 and F denote the fluorescence intensities in the absence and presence of the quencher Q, respectively. Ksv is the Stern–Volmer constant, kq is the bimolecular quenching rate constant (kq = Ksv/τ0), and τ0 is the lifetime of BSA in the absence of quencher, which is equal to 10^−8 s for the tryptophan fluorescence of proteins.
The fluorescence spectra were recorded using a Varian Cary Eclipse spectrofluorometer (Palo Alto, CA, USA) in a 10 mM phosphate-buffered saline solution (pH = 7.4) at 24 °C. The spectra were measured with an excitation wavelength of 280 nm using a slit width of 10 nm for both the excitation and emission beams over a range of 300–450 nm. Spectrofluorometric BSA titrations were performed with increasing concentrations of acridine derivatives.

[9] = tested on: MCF-10A; assay: MTT assay, MCF-10A non-cancerous cells; assay type: cell-based, human; conditions: non-cancerous epithelial breast cells, 48 h incubation
Method in brief: as §2

[10] = tested on: A2780; assay: MTT assay, A2780; assay type: cell-based, human; conditions: ovarian adenocarcinoma, 48 h incubation
Method in brief: as §1

[11] = tested on: A2058; conditions: cisplatin reference, 48 h; cited from earlier work
[12] = tested on: Hep G2; conditions: cisplatin reference, 48 h; cited from earlier work
[13] = tested on: A549; conditions: cisplatin reference, 48 h; cited from earlier work
[14] = tested on: MCF-10A; conditions: cisplatin reference, 48 h; cited from earlier work
[15] = tested on: Bj-5ta; conditions: cisplatin reference, 48 h; cited from earlier work
[16] = tested on: HeLa; conditions: cisplatin reference, 48 h; cited from earlier work
[17] = tested on: HCT116; conditions: cisplatin reference, 48 h; cited from earlier work
[18] = tested on: PATU; conditions: cisplatin reference, 48 h; cited from earlier work

T1 sequence (P02769 25-607): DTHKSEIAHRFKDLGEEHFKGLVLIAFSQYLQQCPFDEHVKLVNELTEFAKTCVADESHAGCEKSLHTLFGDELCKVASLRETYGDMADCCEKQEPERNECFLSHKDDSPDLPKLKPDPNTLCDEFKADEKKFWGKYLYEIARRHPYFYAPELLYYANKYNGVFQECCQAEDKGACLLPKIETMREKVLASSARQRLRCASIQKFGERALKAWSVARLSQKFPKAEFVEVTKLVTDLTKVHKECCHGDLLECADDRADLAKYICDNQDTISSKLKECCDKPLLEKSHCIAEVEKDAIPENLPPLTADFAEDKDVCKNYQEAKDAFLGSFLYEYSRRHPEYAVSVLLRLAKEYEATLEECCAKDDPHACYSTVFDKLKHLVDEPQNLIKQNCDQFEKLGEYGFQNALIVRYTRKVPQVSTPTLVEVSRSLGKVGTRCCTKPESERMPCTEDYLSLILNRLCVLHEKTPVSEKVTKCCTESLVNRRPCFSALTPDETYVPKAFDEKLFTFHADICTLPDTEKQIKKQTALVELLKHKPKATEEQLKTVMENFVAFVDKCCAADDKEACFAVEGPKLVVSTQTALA

| Structure (SMILES) | IC50 [1] | IC50 [2] | IC50 [3] | IC50 [4] | IC50 [5] | IC50 [6] | IC50 [7] | Stern–Volmer quenching constant Ksv [8] | bimolecular quenching rate constant kq [8] | further results |
| --- | --- | --- | --- | --- | --- | --- | --- | --- | --- | --- |
| COc1cc(/C=C2\SC(=O)N(Cc3cccc4cc5ccccc5nc34)C2=O)ccc1OCC(=O)Nc1cc(OC)c(OC)c(OC)c1.Cl [13c·HCl, 2-(4-{[(5Z)-3-[(Acridin-4-yl)methyl]-2,4-dioxo-1,3-thiazolidin-5-ylidene]methyl}-2-methoxyphenoxy)-N-(3,4,5-trimethoxyphenyl)acetamide hydrochloride] | 14.3 ± 6.4 µM | 14.6 ± 3.3 µM | > 50 µM | > 50 µM | > 50 µM | > 50 µM | 23.4 ± 3.4 µM | 10.58 × 10^4 [M^−1] | 10.58 × 10^12 [M^−1·s^−1] | – |
| Cl.Cl.O=C(COc1ccc(/C=C2\SC(=O)N(Cc3c4ccccc4nc4ccccc34)C2=O)cc1)Nc1ccccc1C(F)(F)F [Compound 7e·2HCl, 2-(4-{[(5Z)-3-[(Acridin-9-yl)methyl]-2,4-dioxo-1,3-thiazolidin-5-ylidene]methyl}phenoxy)-N-[2-(trifluoromethyl)phenyl]acetamide dihydrochloride] | 20.5 ± 3.8 µM | 34.3 ± 5.7 µM | > 50 µM | 8.9 ± 3.1 µM | 11 ± 2.2 µM | > 50 µM | > 50 µM | 10.74 × 10^4 [M^−1] | 10.74 × 10^12 [M^−1·s^−1] | IC50 [9]: > 50 µM; IC50 [10]: > 50 µM |
| N.N.[Cl][Pt][Cl] [Cisplatin] | – | – | – | – | – | – | – | – | – | IC50 [11]: 18.8 ± 5.5 µM; IC50 [12]: 14 ± 2.8 µM; IC50 [13]: 17.3 ± 2.2 µM; IC50 [14]: 25.9 ± 2.1 µM; IC50 [15]: 31 ± 0.7 µM; IC50 [16]: 30.4 ± 1.4 µM; IC50 [17]: 14.5 ± 2.5 µM; IC50 [18]: 20.7 ± 3.1 µM |
| COc1cc(/C=C2\SC(=O)N(Cc3cccc4cc5ccccc5nc34)C2=O)ccc1OCC(=O)Nc1ccc([N+](=O)[O-])cc1 [Compound 13d, 2-(4-{[(5Z)-3-[(Acridin-4-yl)methyl]-2,4-dioxo-1,3-thiazolidin-5-ylidene]methyl}-2-methoxyphenoxy)-N-(4-nitrophenyl)acetamide] | – | – | – | 4.9 ± 2.9 µM | – | – | – | 9.59 × 10^4 [M^−1] | 9.59 × 10^12 [M^−1·s^−1] | IC50 ([1]; Homo sapiens, HeLa, 48 h): 36.2 ± 5.23 µM; IC50 ([9]; Homo sapiens, MCF-10A, 48 h): > 50 µM; IC50 ([2]; Homo sapiens, A549, 48 h): 46.9 ± 3.1 µM; IC50 ([3]; Homo sapiens, A2058, 48 h): 38.1 ± 1.65 µM; IC50 ([10]; Homo sapiens, A2780, 48 h): > 50 µM; IC50 ([5]; Homo sapiens, PaTu 8902, 48 h): > 50 µM; IC50 ([6]; Homo sapiens, Fibroblast, 48 h): 38.5 ± 4.5 µM; IC50 ([7]; Homo sapiens, HepG2, 48 h): > 50 µM; melting point: 254 to 257 °C (dec.) |
| COc1cc(/C=C2\SC(=O)N(Cc3c4ccccc4nc4ccccc34)C2=O)ccc1OCC(=O)Nc1ccc([N+](=O)[O-])cc1.Cl.Cl [12d·2HCl, 2-(4-{[(5Z)-3-[(Acridin-9-yl)methyl]-2,4-dioxo-1,3-thiazolidin-5-ylidene]methyl}-2-methoxyphenoxy)-N-(4-nitrophenyl)acetamide dihydrochloride] | 19.3 ± 5.5 µM | > 50 µM | > 50 µM | 17.6 ± 4.5 µM | 30.8 ± 6.2 µM | > 50 µM | > 50 µM | 10.47 × 10^4 [M^−1] | 10.47 × 10^12 [M^−1·s^−1] | – |
